In US20180256623A1, “COMPOSITIONS AND METHOD FOR REGULATING ADIPOSE TISSUE LIPOLYSIS, INSULIN-RESISTANCE, AND HYPERGLYCEMIA” (University of Virginia Patent Foundation, priority 2015, published 2018) one finds immune cell function data, which are given here for one molecule.

The test system of the assay is STZ mice. Put plainly: Hemorrhage and resuscitation protocol with Pseudomonas aeruginosa respiratory infection in STZ mice. As to conditions: in response to Atglistatin treatment. The assay is classed as in vivo. The text has this:
How preventing hyperglycemia can aid recovery and improve survival will be investigated. STZ mice will be subjected to hemorrhage protocol described above, but then resuscitated by fluid replacement to perform a survival surgery. The metabolic status will be followed for up to three days and indices of wound repair and susceptibility to postoperative pneumonia was monitored (FIG. 1). Control and T1DM mice, treated with Atglistatin to inhibit lipolysis or vehicle, will be subjected to the hemorrhage and resuscitation protocol. The ability of Atglistatin to improve survival under baseline conditions, as well as improve wound healing and recovery, will be determined. In addition, it will be determined whether attenuating postoperative hyperglycemia via Atglistatin administration improves survival from postoperative pseudomonal pneumonia and/or improve indices of pneumonia. […] Animals will be monitored for several hours after surgery taking hourly blood glucose measurements. […] Lung injury will be assessed by albumin ELISA in the bronchoalveolar lavage (BAL) fluid. Bacterial counts will be performed in the lung and blood, flow cytometric analysis of BAL cells will be done to assess for leukocyte infiltration and function, and BAL fluid as well as serum will be analyzed for inflammatory cytokine release. […]

Regarding `CN(C)C(=O)Nc1cccc(-c2ccc(N(C)C)cc2)c1` [Atglistatin, N′-[4′-(dimethylamino) [1,1′-biphenyl]-3-yl]-N,N-dimethyl-urea], the immune cell function entry was “restored to levels comparable with normoglycemic mice”.
